# Earlier results, collected in article PMC5867622, “Microginins from a Microcystis sp. Bloom Material Collected from the Kishon Reservoir, Israel” (Marine Drugs, 2018).
# Where two headings read alike, the source gives them in different places. Square brackets hold non-standard residues; d marks the D form. Peptide text beside a SMILES is read from it. * marks the point of attachment. X15 = N[C@@H](CCCCCCC(Cl)Cl)[C@H](O)C(=O)*; X1 = N[C@H](CCCCCCC(Cl)Cl)[C@@H](O)C(=O)*; X14 = CCCCCCC[C@@H](N)[C@@H](O)C(=O)*; X6 = N[C@@H](CCCCCCCCl)[C@H](O)C(=O)*; X7 = N[C@H](CCCCCCCCl)[C@@H](O)C(=O)*; X10 = CCCCCCC[C@@H](N)[C@H](O)C(=O)*; NMeY = CN[C@@H](Cc1ccc(O)cc1)C(=O)O; X3 = CCCCCCC[C@H](NC)[C@H](O)C(=O)*; dNMeY = CN[C@H](Cc1ccc(O)cc1)C(=O)O; hTyr = N[C@@H](CCc1ccc(O)cc1)C(=O)O; X12 = N[C@H](CCCCCCC(Cl)Cl)CC(=O)*; X9 = CCCCCCC[C@H](N)[C@H](O)C(=O)*; NMeL = CN[CH](CC(C)C)C(=O)O; X2 = N[C@H](CCCCCCCCl)CC(=O)*; X5 = NC(CCCCCCCCl)C(O)C(=O)*; NMeV = CN[C@H](C(=O)O)C(C)C; X8 = CCCCCCCC(N)C(O)C(=O)*
# Experiments:
# ACE = settings: cited from earlier work
# APM = settings: cited from earlier work; for IC50: Table S1; for Activity: APM (ni): Table S1, 'APM, ACE-ni'
# [1] = Table S1, ref 9 (Sano et al., Phytochem. 2005)
# [2] = ref 9 (Sano et al., Phytochem. 2005), read-out: Activity: APM
# [3] = Table S1, ref 6 (Ishida et al., Tetrahedron 2000)
# [4] = ref 6 (Ishida et al., Tetrahedron 2000), read-out: Activity: APM
# [5] = ref 6 (Ishida et al., Tetrahedron 2000)
# [6] = Table S1, ref 4 (Ishida et al., Tetrahedron 1998)
# [7] = ref 4 (Ishida et al., Tetrahedron 1998)
# [8] = Table S1, ref 2 (Ishida et al., Tetrahedron 1997)
# [9] = ref 2 (Ishida et al., Tetrahedron 1997), read-out: Activity: APM
# [10] = ref 4 (Ishida et al., Tetrahedron 1998), read-out: Activity: APM
# [11] = Table S1, ref 5 (Kodani et al., FEMS Microbiol. Lett. 1999)
# [12] = ref 5 (Kodani et al., FEMS Microbiol. Lett. 1999), read-out: Activity: AMP
molecule,measurement,setting,value
CCCCCCC[C@@H](N)[C@H](O)C(=O)N[C@@H](C)C(=O)N[C@H](C(=O)N(C)[C@@H](Cc1ccc(O)cc1)C(=O)N[C@@H](CCc1ccc(O)cc1)C(=O)O)C(C)C [Cyanostatin A] (X10-AV[NMeY][hTyr]-OH),IC50,ACE; [1],150 µM
same,IC50,APM; [2],55 µM
CCCCCCCC(N)C(O)C(=O)NC(Cc1ccc(O)cc1)C(=O)N(C)C(CC(C)C)C(=O)N1CCCC1C(=O)NC(Cc1ccc(O)cc1)C(=O)O (stereo not drawn) [Cyanostatin B] (X8-Y[NMeL]PY-OH; configuration not given here),IC50,ACE; [1],170 µM
same,IC50,APM; [2],16 µM
CCCCCCC[C@H](N)[C@H](O)C(=O)N[C@@H](Cc1ccc(O)cc1)C(=O)N(C)[C@H](C(=O)N(C)[C@@H](Cc1ccc(O)cc1)C(=O)N1CCC[C@@H]1C(=O)N[C@@H](Cc1ccc(O)cc1)C(=O)O)C(C)C [Microginin 51-A] (X9-Y[NMeV][NMeY][dP]Y-OH),Activity: ACE (ni),ACE; [3],ni
same,IC50,APM; [4],4.9 µM
CCCCCCC[C@H](NC)[C@H](O)C(=O)N[C@@H](Cc1ccc(O)cc1)C(=O)N(C)[C@H](C(=O)N(C)[C@@H](Cc1ccc(O)cc1)C(=O)N1CCC[C@@H]1C(=O)N[C@@H](Cc1ccc(O)cc1)C(=O)O)C(C)C [Microginin 51-B] (X3-Y[NMeV][NMeY][dP]Y-OH),Activity: ACE (ni),ACE; [3],ni
same,Activity: APM (ni),APM; [5],ni
CCC(C)C(NC(=O)C(O)C(N)CCCCCCCCl)C(=O)N(C)C(CC(C)C)C(=O)N1CCCC1C(=O)O (stereo not drawn) [Microginin 91-B],Activity: ACE (ni),ACE; [3],ni
same,Activity: APM (ni),APM; [5],ni
CCCCCCC[C@@H](N)[C@@H](O)C(=O)N[C@H](C(=O)N(C)[C@@H](CC(C)C)C(=O)N1CCC[C@H]1C(=O)N[C@@H](Cc1ccc(O)cc1)C(=O)O)[C@@H](C)CC [Microginin 91-C] (X14-I[NMeL]PY-OH),Activity: ACE (ni),ACE; [3],ni
same,IC50,APM; [4],71.1 µM
CC[C@H](C)[C@H](NC(=O)[C@H](O)[C@H](N)CCCCCCCCl)C(=O)N(C)[C@@H](CC(C)C)C(=O)N1CCC[C@H]1C(=O)N[C@@H](Cc1ccc(O)cc1)C(=O)O [Microginin 91-D] (X7-I[NMeL]PY-OH),Activity: ACE (ni),ACE; [3],ni
same,IC50,APM; [4],43.4 µM
CC[C@H](C)[C@H](NC(=O)[C@H](O)[C@H](N)CCCCCCC(Cl)Cl)C(=O)N(C)[C@@H](CC(C)C)C(=O)N1CCC[C@H]1C(=O)N[C@@H](Cc1ccc(O)cc1)C(=O)O [Microginin 91-E] (X1-I[NMeL]PY-OH),Activity: ACE (ni),ACE; [3],ni
same,IC50,APM; [4],19.5 µM
CC(C)C[C@H](NC(=O)[C@H](Cc1ccc(O)cc1)NC(=O)C[C@H](N)CCCCCCCCl)C(=O)N(C)[C@@H](Cc1ccc(O)cc1)C(=O)N1CCC[C@H]1C(=O)O [Microginin 99-A] (X2-YL[NMeY]P-OH),Activity: ACE (ni),ACE; [6],ni
same,Activity: APM (ni),APM; [7],ni
CC(C)C[C@H](NC(=O)[C@H](Cc1ccc(O)cc1)NC(=O)C[C@H](N)CCCCCCC(Cl)Cl)C(=O)N(C)[C@@H](Cc1ccc(O)cc1)C(=O)N1CCC[C@H]1C(=O)O [Microginin 99-B] (X12-YL[NMeY]P-OH),Activity: ACE (ni),ACE; [6],ni
same,Activity: APM (ni),APM; [7],ni
CC(C)[C@H](NC(=O)[C@@H](O)[C@@H](N)CCCCCCCCl)C(=O)N(C)[C@H](C(=O)N(C)[C@@H](Cc1ccc(O)cc1)C(=O)N1CCC[C@H]1C(=O)N[C@@H](Cc1ccc(O)cc1)C(=O)O)C(C)C [Microginin 299-A] (X6-V[NMeV][NMeY]PY-OH),Activity: ACE (ni),ACE; [8],ni
same,IC50,APM; [9],5.2 µM
CC(C)[C@H](NC(=O)[C@@H](O)[C@@H](N)CCCCCCC(Cl)Cl)C(=O)N(C)[C@H](C(=O)N(C)[C@@H](Cc1ccc(O)cc1)C(=O)N1CCC[C@H]1C(=O)N[C@@H](Cc1ccc(O)cc1)C(=O)O)C(C)C [Microginin 299-B] (X15-V[NMeV][NMeY]PY-OH),Activity: ACE (ni),ACE; [8],ni
same,IC50,APM; [9],7.1 µM
CCCCCCC[C@H](N)[C@H](O)C(=O)N[C@H](C(=O)N(C)[C@H](C(=O)N(C)[C@@H](Cc1ccc(O)cc1)C(=O)N1CCC[C@H]1C(=O)N[C@@H](Cc1ccc(O)cc1)C(=O)O)C(C)C)C(C)C [Microginin 299-C] (X9-V[NMeV][NMeY]PY-OH),Activity: ACE (ni),ACE; [6],ni
same,IC50,APM; [10],2.3 µM
CC(C)[C@H](NC(=O)[C@H](O)[C@H](N)CCCCCCC(Cl)Cl)C(=O)N(C)[C@H](C(=O)N(C)[C@H](Cc1ccc(O)cc1)C(=O)N1CCC[C@@H]1C(=O)O)C(C)C [Microginin 299-D] (X1-V[NMeV][dNMeY][dP]-OH),Activity: ACE (ni),ACE; [6],ni
same,IC50,APM; [10],8.5 µM
CCCCCCC[C@H](NC)[C@H](O)C(=O)N[C@H](C(=O)N(C)[C@H](C(=O)N(C)[C@@H](Cc1ccc(O)cc1)C(=O)N[C@@H](Cc1ccc(O)cc1)C(=O)O)C(C)C)C(C)C [Microginin 478] (X3-V[NMeV][NMeY]Y-OH),IC50,ACE; [3],13.2 µM
same,IC50,APM; [4],132 µM
CCCCCCC[C@H](N)[C@H](O)C(=O)N(C)[C@@H](CCSC)C(=O)N[C@@H](Cc1ccc(O)cc1)C(=O)N[C@@H](Cc1ccc(O)cc1)C(=O)O [Microginin 674],Activity,"ACE; Table S1, ref 15 (Product of LKT Laboratories, Inc.)",ACE inhibitor
CCCCCCC[C@H](N)[C@H](O)C(=O)N(C)[C@@H](CC[S+](C)[O-])C(=O)N[C@@H](Cc1ccc(O)cc1)C(=O)N[C@@H](Cc1ccc(O)cc1)C(=O)O (stereo partly drawn) [Microginin 690],Activity,"ACE; Table S1, ref 16 (Product of Santa Cruz Biotechnology)",ACE inhibitor
C[C@H](NC(=O)C(O)C(N)CCCCCCCCl)C(=O)N1CCC[C@H]1C(=O)N[C@@H](Cc1ccc(O)cc1)C(=O)N[C@@H](Cc1ccc(O)cc1)C(=O)O (stereo partly drawn) [Microginin T1] (X5-APYY-OH),IC50,ACE; [11],6.8 µM
same,IC50,APM; [12],2.7 µM
CCCCCCCC(N)C(O)C(=O)N[C@@H](C)C(=O)N1CCC[C@H]1C(=O)N[C@@H](Cc1ccc(O)cc1)C(=O)N[C@@H](Cc1ccc(O)cc1)C(=O)O (stereo partly drawn) [Microginin T2] (X8-APYY-OH),IC50,ACE; [11],10 µM
same,IC50,APM; [12],2.9 µM
CCCCCCCC(N)C(O)C(=O)N[C@@H](C)C(=O)N[C@H](C(=O)N(C)[C@@H](Cc1ccc(O)cc1)C(=O)N[C@@H](Cc1ccc(O)cc1)C(=O)O)C(C)C (stereo partly drawn) [Microginin] (X8-AV[NMeY]Y-OH),Activity,"ACE; Table S1, activity named without value, ref 1 (Okino et al., Tetrahedron Lett. 1993)",ACE
Microginin 91-A,Activity: ACE (ni),ACE; [3],ni
same,Activity: APM (ni),APM; [5],ni
